This is an account of results in patent US5348980A, “Enantiomers derived from (S)-2-amino-2-(3,4-dichlorobenzyl)-1-propanol, their use and method of preparation” (Institute de Recherche Jouveinal, priority 1992, dated 1994).

What all share (type): in vivo, guinea pigs
Test [1] relates to bronchoconstriction caused by 100 μmol/kg of histamine. As to the kind of experiment: Histamine-induced bronchoconstriction test (Konzett and Rossler), i.v. administration. As to conditions: for ED50: Cavia porcellus, iv. An excerpt: (§1) Furthermore, the antihistaminic properties were studied in guinea pigs by the bronchoconstriction test performed according to the method of H. Konzett and R. Rossler (Arch. Exp. Path. Pharmak.--Naunym Schmiedeberg - 195, 71-74, 1940).
(§2) The products of the invention were studied in this test after administration in solution or in suspension via the intravenous and intraduodenal routes, and also in powder form via the intranasal route.
(§3) Irrespective of the administration route, the preparation of the animals employed in the test consists in first anesthetizing male guinea pigs weighing 350 to 400 g by intraperitoneal (i.p.) injection of a sterile and isotonic solution containing 25% (w/v.) of ethyl carbamate on the basis of 6.0 ml/kg, and in then fitting the animals with a tracheal cannula to permit measurement of the pulmonary pressure, a cannula in the right jugular vein for the intravenous (i.v.) administration of solution, and also a cannula in the left carotid artery for qualitative observation of the blood pressure.
(§4) The animals are then connected to a pump (Harvard, ref. 50-1718) in order to maintain an artificial ventilation at a frequency of 60 insufflations per minute; the intratracheal pressure is recorded by an assembly comprising a transducer, an amplifier and a recorder (Gould, respective refs.: PLOEZ, 13-4615-50 and 8188-G4400-06).
(§5) Fitted in this way, the animals are left undisturbed for 10 minutes before the beginning of the actual experiment, which is carried out in different ways according to the administration route envisaged.
(§6) In base form, the test products are dissolved in an isotonic solution (0.9% NaCl) containing 10% (v/v) of Transcutol (R). Dilutions are performed by adding isotonic solution. In salt, in particular hydrochloride, form, the solutions are prepared in the isotonic solution.
(§7) The treatment of the animals consists of a series of administrations of histamine dihydrochloride solution on the basis of 100 μmol/kg before and after treatment with the solution of test product, which is carried out according to the following time schedule:
(§8) t=-20 minutes - histamine (100 μmol/kg)
(§9) t=-10 minutes - ditto control
(§10) t=0 - injection of the test product
(§11) t=+10 minutes - histamine (100 μmol/kg)
(§12) - Calculation and expression of the results:
(§13) For each administration route and for each time of administration of histamine, the activity of the products is expressed as the percentage change in amplitude of bronchoconstriction, calculated relative to that produced by the "control" administration of histamine which precedes the administration of the test product. The % change is calculated according to the formula: [formula] in which: Bc(tx) represents the amplitude of the bronchoconstriction in mm at time x,
(§14) Bo(tx) the amplitude of the base-line respiration in mm at time x,
(§15) Bc(to) and Bo(to) the corresponding amplitudes in mm on receipt of the "control" administration of histamine which precedes that of the test product.
(§16) The inhibitory activity of the test products on histamine-induced bronchoconstriction is expressed at different times of the studies as their ED50, which is the effective dose of product, expressed in μmol/kg, capable of inhibiting 50% of the histamine-induced bronchoconstriction at the time in question.
(§17) Failing this expression, the results are expressed as a % change at the time in question and for a given concentration of the test product. Under these conditions, a positive percentage corresponds to a potentiating effect on bronchoconstriction and, conversely, a negative percentage to an inhibitory effect.
(§18) Statistical analyses of the results were carried out by the Student t test. A value of p<0.05 is considered significant.
(§19) The compounds of the invention described in Examples 1 and 2 were employed in these tests. In addition, as a comparative product for the eutomer of Example 1, the racemic (R,S) compound corresponding to it, and which is described and prepared in Example 7 of U.S. Pat. No. 4,994,617, was employed. […]

Test [2] relates to bronchoconstriction caused by 100 nmol/kg of histamine. The test is described as follows: Histamine-induced bronchoconstriction test (Konzett and Rossler), intranasal-powder (In.P.) administration. As to conditions: Cavia porcellus, 5 min, t = 5 min, read-out: ED50 at t = 5 min, inhibition of histamine-induced bronchoconstriction. An excerpt:
Furthermore, the antihistaminic properties were studied in guinea pigs by the bronchoconstriction test performed according to the method of H. Konzett and R. Rossler (Arch. Exp. Path. Pharmak.--Naunym Schmiedeberg - 195, 71-74, 1940). The products of the invention were studied in this test after administration in solution or in suspension via the intravenous and intraduodenal routes, and also in powder form via the intranasal route. Irrespective of the administration route, the preparation of the animals employed in the test consists in first anesthetizing male guinea pigs weighing 350 to 400 g by intraperitoneal (i.p.) injection of a sterile and isotonic solution containing 25% (w/v.) of ethyl carbamate on the basis of 6.0 ml/kg, and in then fitting the animals with a tracheal cannula to permit measurement of the pulmonary pressure, a cannula in the right jugular vein for the intravenous (i.v.) administration of solution, and also a cannula in the left carotid artery for qualitative observation of the blood pressure. The animals are then connected to a pump (Harvard, ref. 50-1718) in order to maintain an artificial ventilation at a frequency of 60 insufflations per minute; the intratracheal pressure is recorded by an assembly comprising a transducer, an amplifier and a recorder (Gould, respective refs.: PLOEZ, 13-4615-50 and 8188-[…]-06). Fitted in this way, the animals are left undisturbed for 10 minutes before the beginning of the actual experiment, which is carried out in different ways according to the administration route envisaged. c) intranasal-powder (In.p) administration The test product is administered via a nasal insufflation of a powder consisting of 20 mg of lactose loaded with the appropriate quantity of the test product. Before this insufflation, the artificial ventilation of the animal is momentarily stopped in order to facilitate the pulmonary penetration of the compound. […] Failing this expression, the results are expressed as a % change at the time in question and for a given concentration of the test product. […]

The test system of test [3] is bronchoconstriction caused by histamine. As to the kind of experiment: Histamine-induced bronchoconstriction test (Konzett and Rossler), i.v. administration. The following applies: 3.5 μmol/kg, t = 10', statistically nonsignificant.
Text: as §1, §2, §3, §4, §5, §6, §7, §8, §9, §10, §11, §12, §13, §14, §15, §16, §17, §18, §19

The test system of test [4] is bronchoconstriction caused by 100 μmol/kg of histamine. As to the kind of experiment: Histamine-induced bronchoconstriction test (Konzett and Rossler), intraduodenal (i.d.) administration. The following applies: for ED50: Cavia porcellus.
Text: as §1, §2, §3, §4, §5
In base form, the test products are suspended in a solution containing 1% w/v of carboxymethylcellulose (CMC), and, in salt form, they are dissolved in an isotonic solution before being administered via a cannula whose end is placed in the animal's duodenum.
The time schedule for the successive administrations of histamine via the i.v. route and that for the test solution via the i.d. route are identical to that described above in a).
as §12, §13, §14, §15, §16, §17, §18, §19

The mark [5] stands for this setting: 10 min, t = 10', read-out: ED50, inhibition of histamine-induced bronchoconstriction, t = 10'.
[6] abbreviates: 20 min, t = 20', read-out: ED50, inhibition of histamine-induced bronchoconstriction, t = 20'.
Where [7] appears, read: 0.5 h, t = 30', read-out: ED50, inhibition of histamine-induced bronchoconstriction, t = 30'.
Where [8] appears, read: 40 min, t = 40', read-out: ED50, inhibition of histamine-induced bronchoconstriction, t = 40'.
The mark [9] stands for this setting: 50 min, t = 50', read-out: ED50, inhibition of histamine-induced bronchoconstriction, t = 50'.
Setting [10] is: 1 h, t = 60', read-out: ED50, inhibition of histamine-induced bronchoconstriction, t = 60'.
Setting [11] is: 3.5 μmol/kg, t = 20', statistically nonsignificant.
The mark [12] stands for this setting: 3.5 μmol/kg, t = 30', statistically nonsignificant.
Setting [13] is: 3.5 μmol/kg, t = 40', statistically nonsignificant.
Setting [14] is: 3.5 μmol/kg, t = 50', statistically nonsignificant.
The mark [15] stands for this setting: 3.5 μmol/kg, t = 60', statistically nonsignificant.

Where a name gives a salt, the structure may show the parent alone.

For the molecule `C=CCN(C)C(C)(CO)Cc1ccc(Cl)c(Cl)c1` (racemic) [Comparative racemate. HCl], the median effective dose (ED50) (commonly the midpoint of the dose-response relation) in test [1] (setting [5]) was 3.72 µmol/kg; in test [1] (setting [6]), 2.11 µmol/kg; in test [1] (setting [7]), 1.88 µmol/kg; in test [1] (setting [8]), 2.07 µmol/kg; in test [1] (setting [9]), 2.34 µmol/kg; in test [1] (setting [10]), 2.22 µmol/kg.
Take `C=CCNC(C)(CO)Cc1ccc(Cl)c(Cl)c1` (racemic) [Comparative racemate]: the ED50 in test [1] (setting [5]) amounted to 6.65 µmol/kg; in test [1] (setting [6]), 4.1 µmol/kg; in test [1] (setting [7]) it was 4.38 µmol/kg; in test [1] (setting [8]), 3.39 µmol/kg; in test [1] (setting [9]), 3.02 µmol/kg; in test [1] (setting [10]) it was 3.52 µmol/kg.
As to `CC1(C)Oc2ccc(C#N)cc2[C@H](N2CCCC2=O)[C@H]1O` (relative stereo) [Cromakalim (INN), reference compound], the median effective dose (ED50) in test [2] turned out to be 1.88 µmol/kg.
As to `C=CCN(C)[C@@](C)(CO)Cc1ccc(Cl)c(Cl)c1` [Comparative distomer, (R)-(-)-N-allyl-2-methylamino-2-(3,4-dichlorobenzyl)-1-propanol, reference compound], the “effect on histamine activity (in words)” value in test [1] is given as “perceptibly though not significantly in statistical terms, a potentiating effect on histamine activity”; in test [4], “perceptibly though not significantly in statistical terms, a potentiating effect on histamine activity”. The figures for the “% potentiating effect on bronchoconstriction, t = 20'” value in test [1] (setting [11]) and in test [4] (setting [11]) were “+18.4%” and “+14.6%”, respectively. The entries for the “% potentiating effect on bronchoconstriction, t = 30'” value in test [1] (setting [12]) and in test [4] (setting [12]) were “+28.2%” and “+32.4%”, respectively. Moreover, the “% potentiating effect on bronchoconstriction, t = 40'” value in test [1] (setting [13]) is reported as “+35.4%”; in test [4] (setting [13]), “+44.5%”. For the same molecule, the “% potentiating effect on bronchoconstriction, t = 50'” value in test [1] (setting [14]) is “+36.7%”; in test [4] (setting [14]), “+35.6%”. In addition, the “% potentiating effect on bronchoconstriction, t = 60'” value is listed as “+41.1%” in test [1] (setting [15]) and “+30.0%” in test [4] (setting [15]). For the same molecule, the “% potentiating effect on bronchoconstriction, t = 10'” value in test [3] is given as “+6.3%”; in test [4] (3.5 μmol/kg, t = 10', statistically nonsignificant), “+5.8%”.
For `C=CCN[C@](C)(CO)Cc1ccc(Cl)c(Cl)c1` [Example 1, (S)-(-)-N-allyl-2-amino-2-(3,4-dichlorobenzyl)-1-propanol], the ED50 came out at 4.89 µmol/kg in test [1] (setting [5]); 2.88 µmol/kg in test [1] (setting [6]); 2.54 µmol/kg in test [1] (setting [7]); 2.58 µmol/kg in test [1] (setting [8]); 3.17 µmol/kg in test [1] (setting [9]); 3.55 µmol/kg in test [1] (setting [10]). Further, the 50% effective dose (ED50) was 1 µmol/kg in test [4] (setting [6]); 0.78 µmol/kg in test [4] (setting [7]); 0.69 µmol/kg in test [4] (setting [8]); 1.28 µmol/kg in test [4] (setting [9]); 2.17 µmol/kg in test [4] (setting [10]).
As to `O=C1NCC2(CCN(CCc3ccccc3)CC2)O1` [Fenspiride (INN). HCl], the ED50 in test [1] (setting [5]) turned out to be 4.25 µmol/kg; in test [1] (setting [6]), 4.99 µmol/kg; in test [1] (setting [7]), 6.26 µmol/kg; in test [1] (setting [8]) it was 8.9 µmol/kg; in test [1] (setting [9]), 8.01 µmol/kg; in test [1] (setting [10]) it was 11 µmol/kg.
